In ChEMBL document CHEMBL1201862, “PubChem BioAssay data set” (2004):
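Cells were grown in 96-well plates and exposed to each compound for 48 hours at five concentrations; endpoints were interpolated linearly between bracketing concentrations, or set to the highest concentration if not reached. GI50 marks 50% less growth.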 Calls of active or inactive are those of the source. No stated cut-off is given here; in the data, active = GI50 up to about 1.1 µM and inactive = higher.

Columns and labels:
Assay in all cases: NCI tumour cell line growth inhibition, 48 h
[1] = test system: OVCAR-3
[2] = test system: RXF 393
[3] = test system: A498
[4] = test system: SN12C
[5] = test system: HCT-15
[6] = test system: U-251
[7] = test system: SK-MEL-5
[8] = test system: NCI-H460
[9] = test system: HOP-62
[10] = test system: SF-539
[11] = test system: HCT-116
[12] = test system: DLD-1
[13] = test system: DMS-273
[14] = test system: SK-OV-3
[15] = test system: SR
[16] = test system: SNB-75
[17] = test system: SK-MEL-2
[18] = test system: A549
[19] = test system: HT-29
[20] = test system: EKVX
[21] = test system: M14
[22] = test system: KM12
[23] = test system: RPMI-8226
[24] = test system: NCI-H23
[25] = test system: DMS-114
[26] = test system: IGROV-1
[27] = test system: K562
[28] = test system: SF-268
[29] = test system: NCI-H522
[30] = test system: SK-MEL-28
[31] = test system: ACHN
[32] = test system: SNB-19
[33] = test system: OVCAR-4
[34] = test system: CAKI-1
[35] = test system: LOX IMVI
[36] = test system: OVCAR-8
[37] = test system: HL-60
[38] = test system: M19-MEL
[39] = test system: LXFL 529
[40] = test system: Malme-3M
[41] = test system: UO-31
[42] = test system: SF-295
[43] = test system: CCRF-CEM
[44] = test system: MOLT-4
[45] = test system: UACC-62
[46] = test system: UACC-257
[47] = test system: SW-620
[48] = test system: 786-0
[49] = test system: HCC 2998
[50] = test system: TK-10
[51] = test system: SNB-78
[52] = test system: HOP-92
[53] = test system: COLO 205
[54] = test system: KM-20L2
[55] = test system: NCI/ADR-RES
[56] = test system: MDA-MB-231
[57] = test system: DU-145
[58] = test system: PC-3
[59] = test system: MDA-N
[60] = test system: T47D
[61] = test system: BT-549
[62] = test system: Hs-578T
[63] = test system: MDA-MB-435
[64] = test system: NCI-H226
[65] = test system: MCF7
[66] = test system: OVCAR-5

Measured: GI50

CC(=O)Oc1c2c(c(OC(C)=O)c3c1n(C(C)=O)c1ccccc1n3C(C)=O)n(C(C)=O)c1ccccc1n2C(C)=O
inactive: [1] 1.92 µM | [2] 8.38 µM | [3] 18.4 µM | [4] 3.27 µM | [6] 10.9 µM | [7] 7.76 µM | [8] 3.68 µM | [9] 8.17 µM | [10] 13.4 µM | [11] 1.95 µM | [12] 3.04 µM | [13] 3.24 µM | [14] 23.6 µM | [15] 2.62 µM | [16] 11.5 µM | [17] 5.18 µM | [18] 6.22 µM | [19] 3.18 µM | [20] > 10 µM | [21] 4.44 µM | [22] 3.76 µM | [23] 2.48 µM | [24] 8.24 µM | [25] 2.59 µM | [26] > 10 µM | [27] 2.86 µM | [28] 7.05 µM | [29] 2.3 µM | [30] 2.89 µM | [31] 9.16 µM | [32] 12.4 µM | [33] 16.9 µM | [34] 10.9 µM | [35] 2.56 µM | [36] 2.95 µM | [37] 2.67 µM | [38] 1.95 µM | [39] 2.74 µM | [40] 2.38 µM | [41] 12.6 µM | [42] 8.81 µM | [43] 2.5 µM | [44] 2.3 µM | [45] 8.73 µM | [46] 3.42 µM | [47] 1.94 µM | [48] 3.46 µM | [49] 3.67 µM
3.27 µM: [5]

Cc1ccc(S(=O)(=O)OC(COC(=O)c2ccccc2)C(OS(=O)(=O)c2ccc(C)cc2)C(OS(=O)(=O)c2ccc(C)cc2)C(COC(=O)c2ccccc2)OS(=O)(=O)c2ccc(C)cc2)cc1 (stereo not given)
inactive: [1] > 100 µM | [2] > 100 µM | [3] > 100 µM | [4] > 100 µM | [6] > 100 µM | [7] > 100 µM | [8] > 100 µM | [9] > 100 µM | [10] > 100 µM | [11] > 100 µM | [13] > 100 µM | [14] > 10 µM | [15] > 100 µM | [16] 29.1 µM | [17] > 100 µM | [18] > 100 µM | [19] > 100 µM | [20] > 100 µM | [21] > 100 µM | [22] > 100 µM | [23] > 100 µM | [24] > 100 µM | [26] > 10 µM | [27] > 100 µM | [28] > 100 µM | [50] > 100 µM | [29] > 100 µM | [30] > 100 µM | [51] > 100 µM | [31] > 100 µM | [32] > 100 µM | [52] > 100 µM | [33] > 100 µM | [34] > 100 µM | [35] > 100 µM | [36] > 100 µM | [37] > 100 µM | [38] > 100 µM | [39] > 100 µM | [40] > 100 µM | [41] > 100 µM | [42] > 100 µM | [43] > 100 µM | [44] > 100 µM | [45] > 10 µM | [53] > 100 µM | [46] > 100 µM | [47] > 100 µM | [54] > 100 µM | [48] > 100 µM | [49] > 100 µM
> 100 µM: [5]

CC1=C2C(=C[C@@](C)(CO)[C@@H]2O)C(=O)[C@](C)(O)C12CC2 [ILLUDIN]
0.00675 µM: [5]
active: [1] 0.0187 µM | [2] 0.00664 µM | [55] 0.0074 µM | [3] 0.0104 µM | [4] 0.019 µM | [56] 0.0213 µM | [6] 0.00213 µM | [7] 0.00596 µM | [8] 0.00147 µM | [9] 0.00705 µM | [10] 0.00506 µM | [11] 0.00386 µM | [57] 0.0181 µM | [58] 0.0143 µM | [14] 0.00612 µM | [15] 0.00182 µM | [16] 0.0138 µM | [17] 0.0143 µM | [18] 0.00458 µM | [19] 0.00341 µM | [20] 0.027 µM | [21] 0.00891 µM | [59] < 0.0117 µM | [22] 0.0212 µM | [23] 0.855 µM | [60] 0.0123 µM | [24] 0.0052 µM | [26] 0.0155 µM | [27] 0.012 µM | [61] 0.00658 µM | [28] 0.00293 µM | [50] 0.0223 µM | [29] 0.00352 µM | [30] 0.0167 µM | [31] 0.00849 µM | [32] 0.0282 µM | [52] 0.0232 µM | [33] 0.00667 µM | [34] 0.0158 µM | [35] 0.00313 µM | [36] 0.0133 µM | [37] 0.00427 µM | [40] 0.00889 µM | [41] 0.0147 µM | [42] 0.00251 µM | [43] 0.0169 µM | [62] 0.0169 µM | [63] 0.0156 µM | [44] 0.00731 µM | [45] 0.0129 µM | [53] 0.00771 µM | [64] 0.0231 µM | [65] 0.00284 µM | [46] 0.0145 µM | [47] 0.00305 µM | [66] 0.0106 µM | [48] 0.00353 µM | [49] 0.013 µM
